Patent US20210060093A1, “COMBINATION THERAPY FOR TREATING OR PREVENTING CANCER” (4D Pharma Research Limited, priority 2018, published 2021)

Assays:
RENCA tumour cells = assay: Antitumor activity, RENCA model; format: in vivo, mouse; conditions: D18 and D22, compared to untreated and vehicle groups, FIG. 3B
Experimental: Treatment schedule—The start of first dosing was considered as D0. On D0, non-engrafted mice were randomized according to their individual body weight into groups of 9 mice using Vivo manager® software (Biosystemes, Couternon, France). On D0, the mice received vehicle (culture medium) or bacterial strain (2×10^8 in 200 μL, PO). On D14, all mice were engrafted with RENCA tumour cells injected SC into the ventral surface of the lower flank as described below. Treatment with anti-CTLA-4 (10 mg/kg, IP) and anti-PDL1 (clone 10F.9G2, 10 mg/kg) was initiated when tumours reached a volume of 50-70 mm3.
Orthotopic induction of RENCA tumor cells in animals by SC injection—On D14, one million (1×10^6) RENCA tumor cells in 50 μL RPMI 1640 medium were transplanted via SC injection into the ventral surface of the lower flank of mice.
Euthanasia—Each mouse was euthanized when it reached a humane endpoint as described in section below, or after a maximum of 6 weeks post start of dosing.
Evaluation of tumour burden at euthanasia—At the time of termination, tumours were collected and their volume evaluated.
Clinical monitoring—The length and width of the tumour was measured twice a week with callipers and the volume of the tumour was estimated by this formula [52]: […]

immature dendritic cells = assay: Cytokine production in immature dendritic cells; format: cell-based; conditions: MRX518 10^7/ml, LPS 100 ng/ml, FIGS. 4b, 4d
Experimental: A monocyte population was isolated from peripheral blood mononuclear cells (PBMCs). The monocyte cells were subsequently differentiated into immature dendritic cells. The immature dendritic cells were plated out at 200,000 cells/well and incubated with MRX518 at a final concentration of 10^7/ml, with the optional addition of LPS at a final concentration of 100 ng/ml. The negative control involved incubating the cells with RPMI media alone and positive controls incubated the cells with LPS at a final concentration of 100 ng/ml. The cytokine content of the cells was then analysed.

Compound	reduction in tumour size (RENCA tumour cells)	level of IL-1β (immature dendritic cells)
CC(=O)O[C@H]1C(=O)[C@@]2(C)[C@H]([C@H](OC(=O)c3ccccc3)[C@]3(O)C[C@H](OC(=O)[C@H](O)[C@@H](NC(=O)c4ccccc4)c4ccccc4)C(C)=C1C3(C)C)[C@]1(OC(C)=O)CO[C@@H]1C[C@@H]2O [Paclitaxel]	(almost) complete reduction in tumour size	
lipopolysaccharide [LPS]		but not IL-1β
